One assay has as its target T1, GLUT1 (Mus musculus, UniProt P17809).
T1 construct: LDM contains small intracellular vesicles of GLUT4 and GLUT1; endogenous in cells; host or cells: low-density microsome fraction of differentiated 3T3-L1 adipocytes
T1 sequence (P17809 1-492): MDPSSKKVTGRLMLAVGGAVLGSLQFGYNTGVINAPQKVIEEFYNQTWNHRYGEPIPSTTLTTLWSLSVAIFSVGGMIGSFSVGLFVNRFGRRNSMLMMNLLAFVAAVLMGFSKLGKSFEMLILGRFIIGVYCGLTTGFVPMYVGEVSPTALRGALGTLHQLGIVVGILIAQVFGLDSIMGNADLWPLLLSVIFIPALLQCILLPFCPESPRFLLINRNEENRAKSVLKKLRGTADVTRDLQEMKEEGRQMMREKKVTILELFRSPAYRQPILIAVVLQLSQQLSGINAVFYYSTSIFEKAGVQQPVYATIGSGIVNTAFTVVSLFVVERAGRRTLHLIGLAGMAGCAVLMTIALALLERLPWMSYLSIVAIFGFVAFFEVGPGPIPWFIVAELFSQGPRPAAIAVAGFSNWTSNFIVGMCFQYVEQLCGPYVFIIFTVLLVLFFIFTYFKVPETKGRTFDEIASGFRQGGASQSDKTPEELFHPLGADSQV
The experiment in a line: ATB-BMPA photolabeling of low-density microsomes (LDM) from 3T3-L1 adipocytes, GLUT1. The class given is binding. To be noted: LDM 200 µg, biotinylated ATB-BMPA 50 µM, mean ± S.E., n = 3; read-out: Half-maximal inhibition (IC50) of ATB-BMPA binding to GLUT1. The procedure:
(§1) 3T3-L1 fibroblasts were grown to confluency and 48 h later subjected to differentiation as previously described. 3T3-L1 adipocytes were used 10 – 14 days after differentiation. Six culture dishes (15 cm) of adipocytes were serum-starved overnight, washed 3 times with ice-cold HES buffer (50 mM Hepes, pH 7.4, 255 mM sucrose, and 1 mM EDTA) containing Roche complete protease inhibitors (Roche Applied Science, Mannheim, Germany), scraped into 5 ml of the same buffer, and then homogenized with either a ball-bearing homogenizer or with a Potter-Elvehjem tissue grinder and a PTFE pestle. The low-density microsome (LDM) fraction was obtained by differential centrifugation as described previously. LDM were resuspended in phosphate buffer (25 mM phosphate, pH 7.4, 100 mM NaCl, 5% glycerol) containing complete Roche protease inhibitors.
(§2) Inhibitors were added to LDM (200 µg protein unless otherwise stated) for 10 min at room temperature. Samples (final volume 110 µl) were then incubated for 10 min at room temperature in the dark with biotinylated ATB-BMPA (50 µM final concentration) and then placed on ice prior to UV irradiation. Reactions were transferred to a 24-well low protein retention culture dish (Costar, Corning, NY) and then irradiated at room temperature 5 cm from a Green Spot UV lamp for 1 min (30 sec of light, followed by 30 sec of darkness, followed by 30 sec of light).
(§3) 20 µl of BSA (1.5 mg/ml final concentration) was added to the UV irradiated samples in a siliconized eppendorph tube. Excess biotinylated ATB-BMPA label was removed using a 0.5 ml Zeba Spin Desalting Column (Pierce). Biotinylated proteins were isolated essentially as described previously. Membranes were solubilized for 30 min at 4°C with 2% Thesit detergent buffer containing protease inhibitors. After centrifugation at 16,000 x g for 10 min, the supernatants were incubated overnight at 4°C with 50 µl of high capacity Streptavidin Agarose resin (Pierce). Precipitates were washed 3 times with 1% Thesit detergent buffer, twice with 0.1% Thesit detergent buffer, and once with phosphate buffer. Biotinylated proteins were eluted at 95 – 100°C for 20 min in 60 µl of 2X Laemmli Sample Buffer containing 40 mM dithiothreitol. Half of the eluted proteins were subjected to SDS-PAGE and transferred to nitrocellulose. Immunoblot analysis was carried out using GLUT4 and GLUT1 specific antibodies and quantified using an Odyssey Infrared Imaging System (LI-COR Biosciences, Lincoln, NE).

The next assay deals with 3T3-L1 fibroblasts. Kind of assay: 2-Deoxyglucose uptake in 3T3-L1 fibroblasts (express only GLUT1). The class given is cell-based. To be noted: for Effect on 2-deoxyglucose uptake (GLUT1 transporter activity): 3T3-L1 fibroblasts. As to the method: 3T3-L1 fibroblasts were grown to confluency in Dulbecco's modified Eagle's medium (DMEM) supplemented with 10% calf serum. The uptake of [^3H]2-Deoxyglucose (50 µM) was measured in Krebs-Ringer phosphate buffer for 6 min at 37°C as previously described. HIV protease inhibitors were added 6 min prior to the start of the reaction. Non-specific uptake measured in the presence of 20 µM cytochalasin B (Sigma) was subtracted from the experimental values.

The next assay concerns the target primary rat adipocytes. The note with it: read-out: KI from inhibition of zero trans glucose uptake; cited from earlier work.
A further assay has as its target T2, GLUT4 (Mus musculus, UniProt P14142).
T2 sequence (P14142 1-509): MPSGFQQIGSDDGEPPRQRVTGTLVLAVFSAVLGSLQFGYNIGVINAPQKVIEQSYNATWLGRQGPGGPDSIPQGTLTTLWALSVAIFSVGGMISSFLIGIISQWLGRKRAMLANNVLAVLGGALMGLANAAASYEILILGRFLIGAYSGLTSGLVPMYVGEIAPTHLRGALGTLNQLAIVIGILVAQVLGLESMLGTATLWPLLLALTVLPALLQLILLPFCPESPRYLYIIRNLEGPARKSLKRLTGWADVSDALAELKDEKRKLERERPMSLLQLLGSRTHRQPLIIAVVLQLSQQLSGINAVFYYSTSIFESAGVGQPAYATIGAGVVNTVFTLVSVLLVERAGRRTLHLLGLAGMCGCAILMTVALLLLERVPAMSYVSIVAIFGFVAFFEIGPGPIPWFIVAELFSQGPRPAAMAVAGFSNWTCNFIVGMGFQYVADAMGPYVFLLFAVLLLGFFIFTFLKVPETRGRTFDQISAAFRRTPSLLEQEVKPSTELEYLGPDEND
The experiment in a line: ATB-BMPA photolabeling of low-density microsomes (LDM) from 3T3-L1 adipocytes, GLUT4. To be noted: LDM 200 µg, biotinylated ATB-BMPA 50 µM, mean ± S.E., n = 3; read-out: Half-maximal inhibition (IC50) of ATB-BMPA binding to GLUT4. Also on record: LDM contains small intracellular vesicles of GLUT4 and GLUT1; endogenous in cells; host or cells: low-density microsome fraction of differentiated 3T3-L1 adipocytes. In kind it is binding. As to the method:
as §1, §2, §3

Take `CC(C)(C)NC(=O)[C@@H]1CN(Cc2cccnc2)CCN1C[C@@H](O)C[C@@H](Cc1ccccc1)C(=O)N[C@H]1c2ccccc2C[C@H]1O` [Indinavir, indinavir]: the IC50 amounted to 178 ± 43 µM on GLUT1; 241 µM in the assay on 3T3-L1 fibroblasts (Mus musculus, 3T3-L1, basal, 50 µM 2-deoxyglucose, read-out: IC50 for inhibition of 2-deoxyglucose uptake in 3T3-L1 fibroblasts); 20.7 ± 3.9 µM on GLUT4. The “Effect on 2-deoxyglucose uptake (GLUT1 transporter activity)” value was “unaffected” in the assay on 3T3-L1 fibroblasts (10 µM PI) and “affected but a lesser extent than GLUT4” in the assay on 3T3-L1 fibroblasts (50 µM PI). In addition, the Ki on primary rat adipocytes was 15 µM.

These data come from paper PMC3179492, “HIV Protease Inhibitors Act as Competitive Inhibitors of the Cytoplasmic Glucose Binding Site of GLUTs with Differing Affinities for GLUT1 and GLUT4” (PLoS ONE, 2011).
